Experimental data: publication PMC3669024, “Pharmacological Characterization of a 5-HT1-Type Serotonin Receptor in the Red Flour Beetle, Tribolium castaneum” (PLoS ONE, 2013)
Where a name gives a salt, the structure may show the parent alone.

Columns and labels:
Am5-HT1 = test system: Am5-HT1; set-up: method as in PMID 20349263; details: cited from earlier work
Trica5-HT1 [1] = target: T1, Trica5-HT1 (Tribolium castaneum, UniProt R9ULB8); assay: Aequorin-luminescence assay, antagonist inhibition of 5-HT mediated activation of Trica5-HT1 in CHO-WTA11 cells; type: cell-based
T1 sequence (R9ULB8 entry or part of it): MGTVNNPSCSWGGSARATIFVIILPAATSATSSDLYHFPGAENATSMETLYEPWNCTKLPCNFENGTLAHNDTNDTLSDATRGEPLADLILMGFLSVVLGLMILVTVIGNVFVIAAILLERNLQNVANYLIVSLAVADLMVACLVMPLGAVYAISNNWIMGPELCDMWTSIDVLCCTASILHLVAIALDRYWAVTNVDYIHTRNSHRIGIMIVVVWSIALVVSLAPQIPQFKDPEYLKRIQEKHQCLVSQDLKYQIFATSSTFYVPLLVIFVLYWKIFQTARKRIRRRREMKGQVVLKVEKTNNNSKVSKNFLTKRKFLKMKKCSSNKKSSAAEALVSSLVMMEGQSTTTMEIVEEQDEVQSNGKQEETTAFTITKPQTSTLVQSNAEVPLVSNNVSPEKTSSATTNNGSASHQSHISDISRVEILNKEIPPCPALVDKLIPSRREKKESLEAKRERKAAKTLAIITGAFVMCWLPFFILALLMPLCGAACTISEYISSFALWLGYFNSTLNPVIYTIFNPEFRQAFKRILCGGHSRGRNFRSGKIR
Description: (§1) General binding studies were performed in Chinese hamster ovary (CHO) WTA11 cells stably coexpressing apoaequorin and the promiscuous Gα16. This allowed us to measure the pharmacology independent of the downstream signaling. CHO-PAM28 cells stably expressing apoaequorin, but not the promiscuous Gα16, and human embryonic kidney cells (HEK) 293 cells were used to measure downstream signaling via Ca^2+ and cAMP, respectively. CHO cell lines were provided by Prof. Marc Parmentier (University of Brussels, Belgium) and Dr. Michel Detheux (Euroscreen S.A., Belgium). HEK293 cells were a gift from Prof. Arnd Baumann (Research Centre Jülich, Germany.
(§2) Cells were cultured in vitro as monolayers at 37°C, 5% CO2 and high relative humidity, and subcultivated twice a week. For transfection of CHO cells, 2.5 ml Opti-MEM®I (Invitrogen), 5 µg plasmid DNA and 12.5 µl Plus^TMreagent (Invitrogen) were mixed, stored at room temperature for 5 min and next repleted with 30 µl Lipofectamine™LTX (Invitrogen). After 30 min incubation at room temperature, this transfection mixture was added dropwise to the cells together with 5 ml medium. HEK293 cells were cotransfected with receptor construct (4 µg) and CRE-luciferase construct (2 µg), consisting of the open reading frame of the reporter gene, luciferase, downstream of a multimerized cAMP-response-element (CRE6x), [39]. All transfections were performed in T75 flasks with a confluency of about 60 percent. Cells were grown overnight, after which 15 ml of medium was added for an additional overnight incubation period.
(§3) The transfected CHO cells were detached with phosphate buffered saline (PBS) containing 0.2% EDTA and collected in DMEM/F-12 (without phenol red, with L-glutamine and 10 mM HEPES) (Gibco). The amount of viable cells was determined using the NucleoCounter NC-100+TM (Chemometic). Cells were pelleted for 4 min at 800 rpm at room temperature and resuspended in BSA-medium (DMEM/F12 without phenol red, with L-glutamine and 10 mM HEPES, supplemented with 0.1% bovine serum albumin) to a concentration of 5×10^6 cells/ml. Coelenterazine H (Invitrogen) was added to a final concentration of 5 µM, and cells were gently shaken for 4 h at room temperature in the dark. After a 10-fold dilution in BSA-medium, cells were incubated another 30 min. The pharmacological ligands were dissolved in BSA-medium. For agonists, 50 µl containing the final ligand concentration was added to appropriate wells of a 96-well plate. For antagonists, 25 µl of the antagonist solution was supplemented with 25 µl of a 5-HT solution. Receptor activity was measured as the light emission after adding 50 µl of the cell suspension. Light emission was measured for 30 s using a Mithras LB940 (Berthold Technologies). Subsequently, cells were lysed with Triton X-100 (0.1% in BSA-medium) and light emission was recorded for another 8 s. BSA-medium was used as a negative control. Light emission from each well was calculated relative to the total response (ligand+Triton X-100) using the output file of Mikrowin2000 software (Mikrotek). Further analysis was done in Graphpad Prism 5.
Potential antagonists were tested by simultaneously applying 5-HT (100 nM) and a high dose of antagonist (100 µM) to Trica5-HT1 expressing cells (Figure 4A). In addition, the dose-dependence of the antagonistic effects were measured with antagonist concentrations ranging from 10 nM to 1 mM (Figure 4B). […] We used the Gaddum/Schild plot to compare the inhibitory potencies of the antagonists by their pA2 values (i.e. the […] of the concentration of antagonist that doubles the amount of 5-HT required for obtaining the same effect).

Pea5-HT1 = test system: Pea5-HT1; set-up: method as in PMID 20233210; details: cited from earlier work
Trica5-HT1 [2] = target: T1, Trica5-HT1; assay: Aequorin-luminescence assay, agonist activation of Trica5-HT1 in CHO-WTA11 cells (apoaequorin + Gα16); type: cell-based; details: for response at 100 µM agonist: Figure 3A
Description: as §1, §2, §3
In order to pharmacologically characterize Trica5-HT1, we used CHO-WTA11 cells stably expressing apoaequorin and the promiscuous Gα16 subunit. […] The dose-response relationship for 5-HT and these synthetic agonists was examined at concentrations ranging from 1 pM to 1 mM (Figure 3B). […] Since the efficacy achieved by any agonist depends on the number of receptors expressed, we measured a dose-response curve for 5-HT in every experiment and normalized all agonist effects to the maximum 5-HT response, set at 100% (Figure 3B).

Trica5-HT1 [3] = target: T1, Trica5-HT1; assay: Aequorin-luminescence assay in CHO-PAM28 cells (no Gα16), Ca2+ signaling of Trica5-HT1; type: cell-based; details: CHO-PAM28 cells transfected with the receptor
Description: as §1
Cells were cultured in vitro as monolayers at 37°C, 5% CO2 and high relative humidity, and subcultivated twice a week. […] HEK293 cells were cotransfected with receptor construct (4 µg) and CRE-luciferase construct (2 µg), consisting of the open reading frame of the reporter gene, luciferase, downstream of a multimerized cAMP-response-element (CRE6x), [39]. […]
The transfected CHO cells were detached with phosphate buffered saline (PBS) containing 0.2% EDTA and collected in DMEM/F-12 (without phenol red, with L-glutamine and 10 mM HEPES) (Gibco). The amount of viable cells was determined using the NucleoCounter NC-100+TM (Chemometic). […] Receptor activity was measured as the light emission after adding 50 µl of the cell suspension. […]

Trica5-HT1 [4] = target: T1, Trica5-HT1; assay: CRE-luciferase reporter-gene assay, NKH-477 stimulated cAMP in HEK293 cells expressing Trica5-HT1; type: cell-based; details: for IC50: NKH-477 stimulated cAMP
Description: as §1, §2
Cotransfected HEK293 cells were detached and the amount of viable cells was determined as described for CHO cells. Cells were pelleted for 4 min at 800 rpm at room temperature and resuspended in DMEM/F12 medium (without phenol red, with L-glutamine and 10 mM HEPES) containing 200 µM 3-isobutyl-1-methylxanthine (IBMX, Sigma-Aldrich) to a concentration of 10^6 cells/ml. The pharmacological ligands were dissolved in DMEM/F12 medium without phenol red containing 200 µM IBMX. The water-soluble forskolin analog NKH-477 was added to a concentration of 20 µM to measure Trica5-ht1-mediated effects on cellular cAMP signaling. In each well of a 96-well plate, 50 µl of ligand suspension and 50 µl of cell suspension were dispensed. […] Light emission was measured for 5 s per well using a Mithras LB940 (Berthold Technologies). […] Data were analyzed as described for CHO cells.
CHO-PAM28 and HEK293 cells were used to determine the downstream signaling pathway of Trica5-HT1. […] Relative high variation in the data can be explained by assay based variation since cells were not counted when dispensed. […]

[5] = EC50, receptor activation in CHO-WTA11 cells
[6] = logEC50 (mean ± SEM), receptor activation in CHO-WTA11 cells, given as negative log values

Compound	antagonist behaviour (Am5-HT1)	inhibition of 5-HT induced responses (words) (Trica5-HT1 [1]; 5-HT 100 nM, antagonist 10 nM to 1 mM)	IC50 (Trica5-HT1 [1]; inhibition of 5-HT (100 nM) mediated activation, CHO-WTA11 cells)	logIC50 (mean ± SEM) (Trica5-HT1 [1]; inhibition of 5-HT (100 nM) mediated activation, CHO-WTA11 cells, given as negative log values)	inhibition of agonist stimulated receptor (Pea5-HT1)	concentrations at which responses were evoked (Trica5-HT1 [2]; CHO-WTA11 cells)	response at 100 µM agonist (Trica5-HT1 [2]; CHO-WTA11 cells)	agonist behaviour (Trica5-HT1 [2]; CHO-WTA11 cells, dose-response 1 pM to 1 mM)	EC50 (Trica5-HT1 [2]; [5])	EC50 (Trica5-HT1 [2]; [6])	agonist behaviour (Am5-HT1)	agonist behaviour (Pea5-HT1)	effect on Ca2+ signaling (Trica5-HT1 [3])	concentration at which the maximal response was attained (Trica5-HT1 [2]; CHO-WTA11 cells)	EC50 (Trica5-HT1 [2]; Half-maximal activation (EC50), CHO-WTA11 cells)	concentration at which maximal attenuation of cAMP synthesis was attained (Trica5-HT1 [4])	Maximal attenuation of cAMP synthesis (Trica5-HT1 [4]; 5-HT ≥10 µM)	IC50 (Trica5-HT1 [4]; given as negative log value, read-out: logIC50 (mean ± SEM) (converted))	IC50 (Trica5-HT1 [4]; read-out: Half maximal reduction of cAMP)
COc1ccccc1N1CCN(CCN(C(=O)C2CCCCC2)c2ccccn2)CC1 [WAY-100635, N-{2-[4-(2-methoxyphenyl)-1-piperazinyl]-ethyl}-N-(2-pyridinyl) cyclohexanecarboxamide]	partial antagonist	no clear dose-dependent effect	no clear dose-dependence of inhibition	no clear dose-dependence of inhibition	effective inhibition	–	–	–	–	–	–	–	–	–	–	–	–	–	–
CCCN(CCC)C1CCc2cccc(O)c2C1 (racemic) [8-OH-DPAT, (±)-8-hydroxy-2-(dipropylamino)tetralin hydrobromide]	–	–	–	–	–	≥ 100 µM	Significant responses	very poor response	551000 nM	550000 nM	poor agonist	poor agonist	–	–	–	–	–	–	–
NCCc1c[nH]c2ccc(O)cc12 [5-HT, 5-HT hydrochloride]	–	–	–	–	–	–	Significant responses	–	95 nM	97.7 nM	–	–	No effect	≥ 10 µM	95.2 nM	≥ 10 µM	~40%	83.2 nM	82.7 nM
